# Assay results published in PMC8301423, “The Effects of Temperature and Pressure on Protein-Ligand Binding in the Presence of Mars-Relevant Salts” (Biology, 2021).
# “And” between values parts separate entries of the source, which are not always exact repeats. Equal values may be shown once.
# Tests used:
# [1] = biological target: T1, bovine serum albumin (BSA) (Bos taurus, UniProt P02769); experiment: High hydrostatic pressure fluorescence titration of ANS with BSA (1-2000 bar); type: binding; settings: for Binding volume ΔVb1 (first binding site): from slope of lnKb1 vs p (1-2000 bar); for Binding volume ΔVb1 (first binding site) / Binding volume ΔVb2 (second binding site) / Binding volume ΔVb: per mol of protein; for Binding volume ΔVb2 (second binding site): from slope of lnKb2 vs p (1-2000 bar); for Binding volume ΔVb: from slope of lnKb vs p (1-2000 bar)
# T1 construct: BSA, molecular weight of 66 kDa, 583 residues; purchased Sigma Aldrich Chemicals (Taufkirchen, Germany)
# Excerpt: (§1) The extent of complex formation between ANS and BSA was followed by means of steady-state fluorescence spectroscopy using a K2 fluorometer from ISS, Inc. (Champaign, IL, USA). The binding isotherms were obtained by recording ANS emission spectra by exciting the solutions at 350 nm and recording the emission intensities in the range 400–550 nm. The width slits of the excitation and emission monochromators were both set to 8 nm. Briefly, a series of solutions with a fixed concentration of ANS at ~5 µM were prepared, and the concentration of BSA was varied between 0 and ~40 µM. Then estimation of the binding constants (Kb) was performed by using a plot of ΔF = F − F0 (where F is the fluorescence intensity of ANS at the maximum in the presence of BSA, and F0 is the intensity of ANS in the absence of BSA) as a function of total BSA concentration and fitting the experimental data according to an equivalent and independent binding sites model or to two classes of non-equivalent and independent binding-site models, as described in detail in Reference.
# For the pressure dependent measurements, the high-pressure cell system from ISS and quartz cuvettes were used. The pressure was controlled by means of a manual pump, and water was used as pressurizing fluid. A pressure range from 1 to 2000 bar was explored. The ANS and BSA solutions were mixed, vortexed, and then filled into the sample cell, which was sealed with DuraSeal^TM laboratory stretch film and placed into the high-pressure vessel. The stretch film allowed for the pressure transmission in the sample cuvette.
# In the next step, we explored the impact of high hydrostatic pressure (HHP) on the binding of ANS to BSA in the presence of the three salts and in the temperature range between 5 and 25 °C. To this end, we performed the same titration experiments following the complex formation by means of HHP fluorescence spectroscopy.
# From the pressure dependence of the Kb values, the volume change upon binding, the protein–ligand binding volume ΔVb, can be determined (for an in-depth discussion of pressure effects on ligand binding, please refer to Reference and references therein):(1) [∂lnKb/∂p]T=−ΔVb/RT
# Here, [∂lnKb/∂p]T is the derivative of the logarithm of the binding constant (Kb) with respect to pressure (p) at constant temperature (T). R is the universal gas constant. ΔVb is the binding volume defined as the difference between the partial molar volume of the complex (PL, where P is the protein and L the ligand) and the sum of the partial molar volumes of the uncomplexed state (P+L). Thus, the binding volume can be directly estimated by taking the slope of a plot of lnKb vs. p, assuming that the volume change is independent of pressure in the (here rather small) pressure range covered.
# [2] = biological target: T1, bovine serum albumin (BSA); experiment: Steady-state fluorescence titration of ANS with BSA at ambient pressure (binding isotherms); settings: for Kd: 1 bar, 10 mM Tris-HCl pH 7.4
# Excerpt: as §1
# Once the stoichiometries of the complex in the presence of the salts and at the three different temperatures are known, it is possible to estimate the binding constants, Kb, performing titration experiments by means of steady-state fluorescence spectroscopy. In these experiments, a solution of ANS was titrated with a BSA solution. The ANS is characterized by a very low quantum yield when it is free in solution [21]. Instead, when the aromatic ligand is bound to the protein’s hydrophobic pockets, a strong increase of the fluorescence intensity is observed. Thus, the extent of binding can be readily determined by following the fluorescence increase of ANS. The subsequent data analysis was performed according to the stoichiometries inferred by the Job’s plot experiments.
# T1 sequence (P02769 25-607): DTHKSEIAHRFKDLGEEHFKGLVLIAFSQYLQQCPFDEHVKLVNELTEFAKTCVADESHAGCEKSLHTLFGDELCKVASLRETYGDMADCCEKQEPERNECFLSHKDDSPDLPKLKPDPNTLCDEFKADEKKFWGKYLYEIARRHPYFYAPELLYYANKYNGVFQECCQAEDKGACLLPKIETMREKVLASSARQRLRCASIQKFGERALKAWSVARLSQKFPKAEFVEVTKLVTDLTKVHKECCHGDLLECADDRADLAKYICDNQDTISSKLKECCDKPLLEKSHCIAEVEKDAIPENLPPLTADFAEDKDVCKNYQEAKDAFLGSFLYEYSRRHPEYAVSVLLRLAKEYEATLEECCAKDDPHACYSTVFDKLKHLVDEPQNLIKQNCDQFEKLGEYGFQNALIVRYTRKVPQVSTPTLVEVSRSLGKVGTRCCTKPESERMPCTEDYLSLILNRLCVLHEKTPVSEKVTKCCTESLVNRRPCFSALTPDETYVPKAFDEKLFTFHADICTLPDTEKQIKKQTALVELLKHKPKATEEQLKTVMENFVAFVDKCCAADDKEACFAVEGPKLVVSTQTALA
compound,measurement,setting,value
"O=S(=O)(O)c1cccc2cccc(Nc3ccccc3)c12 [ANS, 8-anilinonaphthalene-1-sulfonic acid]",Binding volume ΔVb1 (first binding site),"[1]; 250 mM Mg(ClO4)2, 5 °C",-7.4 mL/mol and -7.4 ± 2.4 mL/mol
same,Binding volume ΔVb2 (second binding site),"[1]; 250 mM Mg(ClO4)2, 5 °C",-12.9 mL/mol and -12.9 ± 3.2 mL/mol
same,Binding volume ΔVb1 (first binding site),"[1]; 250 mM Mg(ClO4)2, 15 °C",-6.0 ± 1.0 mL/mol
same,Binding volume ΔVb2 (second binding site),"[1]; 250 mM Mg(ClO4)2, 15 °C",-5.0 ± 1.0 mL/mol
same,Binding volume ΔVb1 (first binding site),"[1]; 250 mM Mg(ClO4)2, 25 °C",6.0 ± 2.0 mL/mol
same,Binding volume ΔVb2 (second binding site),"[1]; 250 mM Mg(ClO4)2, 25 °C",2.0 ± 1.0 mL/mol
same,Increase of Kb with pressure (factor),"[1]; 250 mM MgCl2, 5 °C, up to 2 kbar",about a factor of two
same,Binding volume ΔVb,"[1]; 250 mM MgCl2, 15 °C",-2.5 ± 0.4 mL/mol
same,Binding volume ΔVb,"[1]; 250 mM MgCl2, 25 °C",-1.0 ± 1.0 mL/mol
same,Binding volume ΔVb,"[1]; 250 mM MgSO4, 5 °C",2.0 ± 1.0 mL/mol
same,Binding volume ΔVb,"[1]; 250 mM MgSO4, 15 °C",-2.0 ± 1.0 mL/mol
same,Binding volume ΔVb,"[1]; 250 mM MgSO4, 25 °C",3.6 ± 0.5 mL/mol
same,Kd,"[1]; Binding constant Kb1, 250 mM Mg(ClO4)2, 5 °C, 1 bar",5260 nM
same,Kd,"[1]; Binding constant Kb1, 250 mM Mg(ClO4)2, 5 °C, 500 bar",3130 nM
same,Kd,"[1]; Binding constant Kb1, 250 mM Mg(ClO4)2, 5 °C, 1000 bar",2940 nM
same,Kd,"[1]; Binding constant Kb1, 250 mM Mg(ClO4)2, 5 °C, 1500 bar",2860 nM
same,Kd,"[1]; Binding constant Kb1, 250 mM Mg(ClO4)2, 5 °C, 2000 bar",2560 nM
same,Kd,"[1]; Binding constant Kb1, 250 mM Mg(ClO4)2, 15 °C, 1 bar",6670 nM
same,Kd,"[1]; Binding constant Kb1, 250 mM Mg(ClO4)2, 15 °C, 500 bar",7140 nM
same,Kd,"[1]; Binding constant Kb1, 250 mM Mg(ClO4)2, 15 °C, 1000 bar",5260 nM
same,Kd,"[1]; Binding constant Kb1, 250 mM Mg(ClO4)2, 15 °C, 1500 bar",4760 nM
same,Kd,"[1]; Binding constant Kb1, 250 mM Mg(ClO4)2, 15 °C, 2000 bar",3850 nM
same,Kd,"[1]; Binding constant Kb1, 250 mM Mg(ClO4)2, 25 °C, 1 bar",1690 nM
same,Kd,"[1]; Binding constant Kb1, 250 mM Mg(ClO4)2, 25 °C, 500 bar",1690 nM
same,Kd,"[1]; Binding constant Kb1, 250 mM Mg(ClO4)2, 25 °C, 1000 bar",2630 nM
same,Kd,"[1]; Binding constant Kb1, 250 mM Mg(ClO4)2, 25 °C, 1500 bar",2940 nM
same,Kd,"[1]; Binding constant Kb1, 250 mM Mg(ClO4)2, 25 °C, 2000 bar",2500 nM
same,Kd,"[1]; Binding constant Kb1, 250 mM MgCl2, 5 °C, 1 bar",1000 ± 100 nM
same,Kd,"[1]; Binding constant Kb1, 250 mM MgCl2, 5 °C, 500 bar",1000 ± 200 nM
same,Kd,"[1]; Binding constant Kb1, 250 mM MgCl2, 5 °C, 1000 bar",833 nM
same,Kd,"[1]; Binding constant Kb1, 250 mM MgCl2, 5 °C, 1500 bar",556 nM
same,Kd,"[1]; Binding constant Kb1, 250 mM MgCl2, 5 °C, 2000 bar",526 nM
same,Kd,"[1]; Binding constant Kb1, 250 mM MgCl2, 15 °C, 1 bar",2780 nM
same,Kd,"[1]; Binding constant Kb1, 250 mM MgCl2, 15 °C, 500 bar",2500 nM
same,Kd,"[1]; Binding constant Kb1, 250 mM MgCl2, 15 °C, 1000 bar",2440 nM
same,Kd,"[1]; Binding constant Kb1, 250 mM MgCl2, 15 °C, 1500 bar",2330 nM
same,Kd,"[1]; Binding constant Kb1, 250 mM MgCl2, 15 °C, 2000 bar",2220 nM
same,Kd,"[1]; Binding constant Kb1, 250 mM MgCl2, 25 °C, 1 bar",204 nM
same,Kd,"[1]; Binding constant Kb1, 250 mM MgCl2, 25 °C, 500 bar",233 nM
same,Kd,"[1]; Binding constant Kb1, 250 mM MgCl2, 25 °C, 1000 bar",222 nM
same,Kd,"[1]; Binding constant Kb1, 250 mM MgCl2, 25 °C, 1500 bar",204 nM
same,Kd,"[1]; Binding constant Kb1, 250 mM MgCl2, 25 °C, 2000 bar",192 nM
same,Kd,"[1]; Binding constant Kb1, 250 mM MgSO4, 5 °C, 1 bar",1610 nM
same,Kd,"[1]; Binding constant Kb1, 250 mM MgSO4, 5 °C, 500 bar",2080 nM
same,Kd,"[1]; Binding constant Kb1, 250 mM MgSO4, 5 °C, 1000 bar",2130 nM
same,Kd,"[1]; Binding constant Kb1, 250 mM MgSO4, 5 °C, 1500 bar",1820 nM
same,Kd,"[1]; Binding constant Kb1, 250 mM MgSO4, 5 °C, 2000 bar",2270 nM
same,Kd,"[1]; Binding constant Kb1, 250 mM MgSO4, 15 °C, 1 bar",2560 nM
same,Kd,"[1]; Binding constant Kb1, 250 mM MgSO4, 15 °C, 500 bar",2500 nM
same,Kd,"[1]; Binding constant Kb1, 250 mM MgSO4, 15 °C, 1000 bar",2380 nM
same,Kd,"[1]; Binding constant Kb1, 250 mM MgSO4, 15 °C, 1500 bar",2330 nM
same,Kd,"[1]; Binding constant Kb1, 250 mM MgSO4, 15 °C, 2000 bar",2220 nM
same,Kd,"[1]; Binding constant Kb1, 250 mM MgSO4, 25 °C, 1 bar",345 nM
same,Kd,"[1]; Binding constant Kb1, 250 mM MgSO4, 25 °C, 500 bar",345 nM
same,Kd,"[1]; Binding constant Kb1, 250 mM MgSO4, 25 °C, 1000 bar",370 nM
same,Kd,"[1]; Binding constant Kb1, 250 mM MgSO4, 25 °C, 1500 bar",417 nM
same,Kd,"[1]; Binding constant Kb1, 250 mM MgSO4, 25 °C, 2000 bar",455 nM
same,Kd,"[1]; Binding constant Kb2, 250 mM Mg(ClO4)2, 5 °C, 1 bar",5260 nM
same,Kd,"[1]; Binding constant Kb2, 250 mM Mg(ClO4)2, 5 °C, 500 bar",2500 nM
same,Kd,"[1]; Binding constant Kb2, 250 mM Mg(ClO4)2, 5 °C, 1000 bar",2940 nM
same,Kd,"[1]; Binding constant Kb2, 250 mM Mg(ClO4)2, 5 °C, 1500 bar",1920 nM
same,Kd,"[1]; Binding constant Kb2, 250 mM Mg(ClO4)2, 5 °C, 2000 bar",1520 nM
same,Kd,"[1]; Binding constant Kb2, 250 mM Mg(ClO4)2, 15 °C, 1 bar",7690 nM
same,Kd,"[1]; Binding constant Kb2, 250 mM Mg(ClO4)2, 15 °C, 500 bar",6670 nM
same,Kd,"[1]; Binding constant Kb2, 250 mM Mg(ClO4)2, 15 °C, 1000 bar",5260 nM
same,Kd,"[1]; Binding constant Kb2, 250 mM Mg(ClO4)2, 15 °C, 1500 bar",4760 nM
same,Kd,"[1]; Binding constant Kb2, 250 mM Mg(ClO4)2, 15 °C, 2000 bar",4170 nM
same,Kd,"[1]; Binding constant Kb2, 250 mM Mg(ClO4)2, 25 °C, 1 bar",833 nM
same,Kd,"[1]; Binding constant Kb2, 250 mM Mg(ClO4)2, 25 °C, 500 bar",909 nM
same,Kd,"[1]; Binding constant Kb2, 250 mM Mg(ClO4)2, 25 °C, 1000 bar",833 nM
same,Kd,"[1]; Binding constant Kb2, 250 mM Mg(ClO4)2, 25 °C, 1500 bar",833 nM
same,Kd,"[1]; Binding constant Kb2, 250 mM Mg(ClO4)2, 25 °C, 2000 bar",1120 nM
same,Decrease of Kb on decreasing the temperature from 25 to 15 °C,"[2]; 250 mM MgCl2, 1 bar",~ 90%
same,Kd,"[2]; Binding constant Kb1, 250 mM Mg(ClO4)2, 5 °C",5260 nM
same,Kd,"[2]; Binding constant Kb1, 250 mM Mg(ClO4)2, 15 °C",6670 nM
same,Kd,"[2]; Binding constant Kb1, 250 mM Mg(ClO4)2, 25 °C",1690 nM
same,Kd,"[2]; Binding constant Kb1, 250 mM MgCl2, 5 °C",1000 ± 100 nM
same,Kd,"[2]; Binding constant Kb1, 250 mM MgCl2, 15 °C",2780 nM
same,Kd,"[2]; Binding constant Kb1, 250 mM MgCl2, 25 °C",204 nM
same,Kd,"[2]; Binding constant Kb1, 250 mM MgSO4, 5 °C",1610 nM
same,Kd,"[2]; Binding constant Kb1, 250 mM MgSO4, 15 °C",2560 nM
same,Kd,"[2]; Binding constant Kb1, 250 mM MgSO4, 25 °C",345 nM
same,Kd,"[2]; Binding constant Kb2, 250 mM Mg(ClO4)2, 5 °C",5260 nM
same,Kd,"[2]; Binding constant Kb2, 250 mM Mg(ClO4)2, 15 °C",7690 nM
same,Kd,"[2]; Binding constant Kb2, 250 mM Mg(ClO4)2, 25 °C",833 nM
